Values quoted from earlier work in patent US20090239757A1, “Control Sequences Responding to AMP and Uses Thereof” (priority 2004, published 2009).
Residues, ends and D or L forms follow the SMILES beside them.

Test system: Gram-positive and Gram-negative bacteria
Conditions: U.S. Pat. No. 6,492,328; cited from earlier work

CC[C@H](C)[C@H](NC(=O)CNC(=O)[C@H](CCCCN)NC(=O)[C@H](CCCNC(=N)N)NC(=O)[C@@H](NC(=O)[C@@H](NC(=O)[C@H](CCCNC(=N)N)NC(=O)[C@H](CCCNC(=N)N)NC(=O)[C@H](CC(C)C)NC(=O)[C@H](CC(N)=O)NC(=O)[C@@H](N)CCCCN)[C@@H](C)CC)[C@@H](C)CC)C(=O)N[C@@H](Cc1c[nH]cn1)C(=O)N[C@H](C(=O)N[C@H](C(=O)N[C@@H](CCCCN)C(=O)N[C@@H](CCCCN)C(=O)N[C@@H](Cc1ccc(O)cc1)C(=O)NCC(=O)O)[C@@H](C)CC)[C@@H](C)CC [Novispirin G10] (H-KNLRRIIRKGIHIIKKYG-OH; N-terminus assumed)
antimicrobial activity: activity against both Gram-positive and Gram-negative bacteria
